Experiment in all cases: minimum inhibitory concentration (MIC), antimicrobial activity
Holding throughout (assay type): cell-based

For one experiment, the system named is M. luteus PCI 1001. An excerpt: (§1) Concerning the antimicrobial activity of the compounds of this invention of the formula (I), minimum effective inhibitory concentrations (MIC) of the compounds are shown in the following Table.
In the next experiment the test system is Pseud. aeruginosa A3.
Source text: as §1

In another experiment the test system is Staph. aureus Smith.
Source text: as §1

In the next experiment the test system is Kl. pnueroniae PCI-602.
Source text: as §1

A further experiment concerns B. Subtilis NRRL B-558.
Source text: as §1

The next experiment deals with Sal.entiritidis 1891.
Source text: as §1

[1] abbreviates: Micrococcus luteus, PCI1001, read-out: MIC.
Where [2] appears, read: Pseudomonas aeruginosa, A3, Pseud. aeruginosa A3, read-out: MIC.
[3] abbreviates: Staphylococcus aureus, read-out: MIC.
Setting [4] is: Bacillus subtilis, NRRLB558, read-out: MIC.

In brackets after ≈: the same amount, converted by molar mass. Where two headings read alike, the source gives them in different places.

The MIC is the smallest concentration in the dilution series that meets the test's criterion for growth inhibition. On to “23-C-methylmycaminosyl tylonolide diethylacetal [2(2)]”, for which the MIC against M. luteus PCI 1001 is less than 0.2 µg/mL; in the experiment on Pseud. aeruginosa A3 (Pseud. aeruginosa A3), 12.5 µg/mL; with Staph. aureus Smith, 1.56 µg/mL; against Kl. pnueroniae PCI-602, 3.12 µg/mL; in the experiment on B. Subtilis NRRL B-558, 0.78 µg/mL; with Sal.entiritidis 1891, 3.12 µg/mL.

Turning to `CCC1OC(=O)CC(O)C(C)C(OC2OC(C)C(O)C(N(C)C)C2O)C(CC=O)CC(C)C(=O)/C=C/C(C)=C/C1C(C)O` (single isomer, unassigned) [1(3), 23-C-methylmycaminosyl tylonolide], the MIC was less than 0.2 µg/mL in the experiment with M. luteus PCI 1001 (setting [1]); 12.5 µg/mL (≈ 20.4 µM) in the experiment with Pseud. aeruginosa A3 (setting [2]); 1.56 µg/mL (≈ 2.55 µM) in the experiment with Staph. aureus Smith (setting [3]); 3.12 µg/mL (≈ 5.1 µM) in the experiment with Kl. pnueroniae PCI-602 (read-out: MIC); 0.78 µg/mL (≈ 1.27 µM) in the experiment with B. Subtilis NRRL B-558 (setting [4]); 3.12 µg/mL (≈ 5.1 µM) with Sal.entiritidis 1891 (read-out: MIC).

In the case of `CCC(O)C1/C=C(C)/C=C/C(=O)C(C)CC(CC=O)C(OC2OC(C)C(O)C(N(C)C)C2O)C(C)C(O)CC(=O)OC1CC` (single isomer, unassigned) [4(2), 23-C-ethylmycaminosyl tylonolide], the MIC with M. luteus PCI 1001 (setting [1]) was less than 0.2 µg/mL; with Pseud. aeruginosa A3 (setting [2]), 6.25 µg/mL (≈ 9.99 µM); in the experiment on Staph. aureus Smith (setting [3]), 0.78 µg/mL (≈ 1.25 µM); in the experiment on Kl. pnueroniae PCI-602 (read-out: MIC) it was 6.25 µg/mL (≈ 9.99 µM); in the experiment with B. Subtilis NRRL B-558 (setting [4]) it was 0.39 µg/mL (≈ 0.623 µM); with Sal.entiritidis 1891 (read-out: MIC), 3.12 µg/mL (≈ 4.99 µM).

Regarding `C=CCC(O)C1/C=C(C)/C=C/C(=O)C(C)CC(CC=O)C(OC2OC(C)C(O)C(N(C)C)C2O)C(C)C(O)CC(=O)OC1CC` (single isomer, unassigned) [8"F, 23-C-(2-propenyl)mycaminosyl tylonolide], the MIC is less than 0.2 µg/mL in the experiment on M. luteus PCI 1001 (setting [1]); 6.25 µg/mL (≈ 9.8 µM) in the experiment on Pseud. aeruginosa A3 (setting [2]); less than 0.2 µg/mL in the experiment with Staph. aureus Smith (setting [3]); 3.12 µg/mL (≈ 4.89 µM) in the experiment on Kl. pnueroniae PCI-602 (read-out: MIC); 0.39 µg/mL (≈ 0.611 µM) in the experiment on B. Subtilis NRRL B-558 (setting [4]); 3.12 µg/mL (≈ 4.89 µM) in the experiment with Sal.entiritidis 1891 (read-out: MIC).

With `C=CC(O)C1/C=C(C)/C=C/C(=O)C(C)CC(CC=O)C(OC2OC(C)CC(N(C)C)C2O)C(C)C(O)CC(=O)OC1CC` (single isomer, unassigned) [10"F, 4'-deoxy-23-C-vinylmycaminosyl tylonolide], the MIC with M. luteus PCI 1001 (setting [1]) is less than 0.2 µg/mL; in the experiment with Staph. aureus Smith (setting [3]), 0.78 µg/mL (≈ 1.28 µM); in the experiment on Kl. pnueroniae PCI-602 (read-out: MIC) it was 3.12 µg/mL (≈ 5.13 µM); in the experiment with B. Subtilis NRRL B-558 (setting [4]), 0.39 µg/mL (≈ 0.642 µM); in the experiment with Sal.entiritidis 1891 (read-out: MIC) it was 3.12 µg/mL (≈ 5.13 µM).

Consider `C#CC(O)C1/C=C(C)/C=C/C(=O)C(C)CC(CC=O)C(OC2OC(C)CC(N(C)C)C2O)C(C)C(O)CC(=O)OC1CC` (single isomer, unassigned) [12"F, 4'-deoxy-23-C-ethinylmycaminosyl tylonolide], for which the MIC in the experiment with M. luteus PCI 1001 (setting [1]) is less than 0.2 µg/mL; in the experiment with Pseud. aeruginosa A3 (setting [2]), 3.12 µg/mL (≈ 5.15 µM); with Staph. aureus Smith (setting [3]), 0.78 µg/mL (≈ 1.29 µM); in the experiment with Kl. pnueroniae PCI-602 (read-out: MIC), 1.56 µg/mL (≈ 2.58 µM); in the experiment on B. Subtilis NRRL B-558 (setting [4]), 0.78 µg/mL (≈ 1.29 µM); in the experiment on Sal.entiritidis 1891 (read-out: MIC), 3.12 µg/mL (≈ 5.15 µM).

For `CCC1OC(=O)CC(O)C(C)C(OC2OC(C)CC(N(C)C)C2O)C(CC=O)CC(C)C(=O)/C=C/C(C)=C/C1C(C)O` (single isomer, unassigned) [Example 5(2), 4'-deoxy-23-C-methylmycaminosyl tylonolide], the MIC in the experiment with M. luteus PCI 1001 (setting [1]) was less than 0.2 µg/mL; in the experiment with Pseud. aeruginosa A3 (setting [2]) it was 25 µg/mL (≈ 42 µM); in the experiment on Staph. aureus Smith (setting [3]), 0.39 µg/mL (≈ 0.655 µM); in the experiment with Kl. pnueroniae PCI-602 (read-out: MIC), 1.56 µg/mL (≈ 2.62 µM); in the experiment with B. Subtilis NRRL B-558 (setting [4]) it was 0.39 µg/mL (≈ 0.655 µM); with Sal.entiritidis 1891 (read-out: MIC), 3.12 µg/mL (≈ 5.24 µM).

In the case of `CCC1OC(=O)CC(O)C(C)C(OC2OC(C)CC(N(C)C)C2O)C(CC=O)CC(C)C(=O)/C=C/C(C)=C/C1C(C)O` (single isomer, unassigned) [Example 6, 4'-deoxy-23-C-methymycaminosyl tylonolide], the MIC with M. luteus PCI 1001 is less than 0.2 µg/mL; against Pseud. aeruginosa A3 (Pseud. aeruginosa A3) it was 12.5 µg/mL (≈ 21 µM); with Staph. aureus Smith, 0.39 µg/mL (≈ 0.655 µM); in the experiment with Kl. pnueroniae PCI-602 it was 3.12 µg/mL (≈ 5.24 µM); against B. Subtilis NRRL B-558, 0.39 µg/mL (≈ 0.655 µM); in the experiment on Sal.entiritidis 1891 it was 3.12 µg/mL (≈ 5.24 µM).

On to `C#CC(O)C1C=C(C)C=CC(=O)C(C)CC(CC=O)C(OC2OC(C)C(O)C(N(C)C)C2O)C(C)C(O)CC(=O)OC1CC` (centres unmarked) [11"F, 23-C-ethinylmycaminosyl tylonolide], for which the MIC against M. luteus PCI 1001 was less than 0.2 µg/mL; in the experiment with Pseud. aeruginosa A3 (Pseud. aeruginosa A3), 6.25 µg/mL (≈ 10.1 µM); in the experiment with Staph. aureus Smith it was 1.56 µg/mL (≈ 2.51 µM); with Kl. pnueroniae PCI-602 it was 3.12 µg/mL (≈ 5.02 µM); with B. Subtilis NRRL B-558 it was 3.12 µg/mL (≈ 5.02 µM); in the experiment on Sal.entiritidis 1891 it was 3.12 µg/mL (≈ 5.02 µM).

Regarding `CC[C@H]1OC(=O)C[C@@H](O)[C@H](C)[C@@H](O[C@@H]2O[C@H](C)C[C@H](N(C)C)[C@H]2O)[C@@H](CC=O)C[C@@H](C)C(=O)/C=C/C(C)=C/[C@@H]1CO` [DT, 4'deoxy mycaminosyl/ tylonolide, reference compound], the MIC was less than 0.2 µg/mL against M. luteus PCI 1001; 12.5 µg/mL (≈ 21.5 µM) in the experiment with Pseud. aeruginosa A3 (Pseud. aeruginosa A3); 0.39 µg/mL (≈ 0.67 µM) against Staph. aureus Smith; 1.56 µg/mL (≈ 2.68 µM) in the experiment with Kl. pnueroniae PCI-602; 1.56 µg/mL (≈ 2.68 µM) against B. Subtilis NRRL B-558; 1.56 µg/mL (≈ 2.68 µM) against Sal.entiritidis 1891.

Consider `CC[C@H]1OC(=O)C[C@@H](O)[C@H](C)[C@@H](O[C@@H]2O[C@H](C)[C@@H](O)[C@H](N(C)C)[C@H]2O)[C@@H](CC=O)C[C@@H](C)C(=O)/C=C/C(C)=C/[C@@H]1CO` [MT, mycaminosyl tylonolide], for which the MIC against M. luteus PCI 1001 is less than 0.2 µg/mL; against Pseud. aeruginosa A3 (Pseud. aeruginosa A3) it was 25 µg/mL (≈ 41.8 µM); in the experiment on Staph. aureus Smith, 1.56 µg/mL (≈ 2.61 µM); against Kl. pnueroniae PCI-602 it was 3.12 µg/mL (≈ 5.22 µM); with B. Subtilis NRRL B-558, 3.12 µg/mL (≈ 5.22 µM); against Sal.entiritidis 1891 it was 3.12 µg/mL (≈ 5.22 µM).

(Values after patent EP0159881A2, “23-C-substituted mycaminosyl tylonolide” (ZAIDAN HOJIN BISEIBUTSU KAGAKU KENKYU KAI, priority 1984, dated 1985).)
